Reference: patent publication US20220218710A1, “Inhibition of Neddylation for Treatment of MS” (The Regents of the University of California, priority 2019, published 2022)

Test system: experimental autoimmune encephalomyelitis (EAE)
Type: in vivo, C57BL/6 mice
Protocol: FIGS. 3A, 3B, and 3C. FIGS. 3A, 3B, and 3C depicts pevonedistat treatment effects in an MS animal model. FIG. 3A depicts the trial design: C57BL/6 mice were treated daily starting on Day−1 with either Pevonedistat (20 mg/kg) or placebo (n=10/group). The result shown here is one representative of two independent experiments. EAE was induced through active immunization with myelin oligodendrocyte (MOG) peptide 35-55 following standard protocols (triangles). Weights were taken on D−1, D7, and D14 (dots). Animals were scored daily. Mice were sacrificed and brain and spinal cords of were harbored on Day 16 at peak disease (n=4/group) (triangle). FIG. 3B depicts EAE severity: Diseases was assessed blinded using a […] scale from 0 to 5 (0=no symptoms, 5=death). Data shown here are from one representative of two experiments. FIG. 3C depicts mice weights over the course of the experiment. ****p-value<0.001, 2-way ANOVA test.
EAE induction and neddylation inhibition in mice. Four weeks old female C57BL/6 mice were used. All mice were housed in closed caging systems and provided with standard irradiated chow diet, acidified water ad libitum and housed under a 12-hour light cycle. Pevonedistat (MLN4924) (Chemietek Inc., Indianapolis, Ind.) was dissolved in DMSO and further diluted in 30% of PEG300 and 5% of TWEEN in ddH2O at a concentration of 40 mg/mL and stored at −20° C. 7-8 week old mice were treated daily with 20 mg/kg Pevonedistat or vehicle (same concentration of buffer without Pevonedistat) starting at day −1. Mice were immunized subcutaneously on day 0 with 100 μg MOG35-55 emulsified in incomplete Freund's adjuvant supplemented with Mycobacterium tuberculosis followed by two intraperitoneal injections on Day 0 and Day 2 with 300 ng pertussis each. […] Mice were scored daily on a […] scale in a blinded fashion as follows: 0, no deficit; 1, limp tail only; 2, limp tail and hind limb weakness; 3, complete hind limb paralysis; 4, complete hind limb paralysis and partial/complete forelimb paralysis; 5, death.
Inhibition of neddylation reduces EAE. […] Pevonedistat (MLN4924), which is a small molecule and first-in-class inhibitor of NAE was next used in experimental autoimmune encephalomyelitis (EAE), an established MS mouse model driven by a strong CD4+ T cell response (FIG. 3A). Although Pevonedistat was originally tested as a cancer therapy, recent studies proposed this agent as a potential therapeutic target for immune-related diseases due to the important role of neddylation in immune cell functions.

[1] = 20 mg/kg daily, EAE mice at peak disease

What does the source list for `NS(=O)(=O)OC[C@@H]1C[C@@H](n2ccc3c(N[C@H]4CCc5ccccc54)ncnc32)C[C@@H]1O` [Pevonedistat, pevonedistat]?
EAE severity (10-point scale from 0 to 5, scored daily, blinded) (20 mg/kg daily from day -1, compared to placebo-treated group, FIG. 3B): significantly reduced EAE severity; density of CD3+ T cells in spinal cord [1]: decreased densities; density of Iba1+ myeloid cells in spinal cord [1]: decreased densities; spinal cord inflammation (inflammatory infiltrates) (20 mg/kg daily, EAE spinal cords at peak disease, vs placebo): dramatic reduction in spinal cord inflammation; demyelination, histological assessment of CNS tissue (20 mg/kg daily, at peak disease (Day 16)): significant reduction of demyelination; mice weights during the disease course (20 mg/kg daily, placebo group had significant weight loss at peak of disease, FIG. 3C): steady weight
